Read-outs that look alike come from different tables or passages of the source.
Key:
neovasculature = test: Matrigel plug assay, effects of TGF-β signaling inhibitor on neovasculature; format: in vivo, ICR mice; conditions: 500 nM LY
Protocol: In the present invention, increasing the leakiness of neovasculature in tumor tissue, and, depending on the circumstances, decreasing fibrosis, are phenomena that can be observed, for instance, in a dextran injection experiment (briefly, an experiment in which a mouse is used, a Matrigel in which VEGF-A and FGF-2 have been mixed is injected subcutaneously into the abdominal wall, and seven days after administering TGF-β signaling inhibitor intraperitoneally, 2,000,000 molecular weight dextran is injected, the animal is sacrificed, and the relationship between neovasculature and dextran distribution in the extracted Matrigel plug is determined: refer to Kano, M. R. et al., J. Cell Sci., 118, 3759-3768. (2005)) (refer to FIG. 2-1 and FIG. 2-2).
VEGF-A, FGF-2, and heparin were mixed into Matrigel (BD), furthermore, 500 nM of the TGF-β inhibitor LY364947 (hereinafter, referred to as LY) or 50 μg/ml of T βRII:Fc or a control was further mixed into the same gel, these were subcutaneously injected into the abdominal wall of male ICR mice, the animals were sacrificed on the 7th day to extract the Matrigel plug, and a search was carried out using immunofluorescence staining. Concretely, regarding the neovasculature morphology, vascular endothelial cells were recognized with an antibody against PECAM-1 (platelet endothelial cell adhesion molecule-1) and vascular pericytes were recognized with an antibody against SMA (a smooth muscle actin), in the LY-administered group or control group, the proportion of the areas covered by pericytes within the total endothelial cell area, and, the areas positive for the vascular endothelium marker were quantified (hereabove, n=20). In addition, 6 hours prior to sacrifice, macromolecular dextran with a molecular weight of 2,000,000 (Invitrogen Molecular Probes) was administered via the tail vein, and the difference in distribution in tumor tissue due to the presence or absence of inhibitor was investigated by quantification of the distribution area (n=21).

[1] = test system: neovasculature in BxPC3 tumor tissue; test: 3-1 BxPC3 xenograft, neovasculature morphological change and dextran distribution; format: in vivo, nude mice
Protocol: Twenty-four hours before sacrificing the animals, 1 mg/kg of LY364947 (hereinafter, referred to as LY) as TGF-β inhibitor or a control was administered once intraperitoneally. […] Concretely, regarding the neovasculature morphology, vascular endothelial cells were recognized with an antibody against PECAM-1 (platelet endothelial cell adhesion molecule-1), vascular pericytes were recognized with an antibody against NG2 (neuroglycan 2), the proportion of the areas covered by pericytes within the total endothelial cell area, and, the areas positive for the vascular endothelium marker were quantified (hereabove, n=4 animals×10 microscopic visual fields=40), in addition, regarding dextran distribution, the distribution area thereof was quantified. In addition, after an identical model was prepared, 6 hours prior to sacrifice, macromolecular dextran with a molecular weight of 2,000,000 (Invitrogen Molecular Probes) was administered via the tail vein, and the difference in distribution in tumor tissue due to the presence or absence of inhibitor was investigated by quantification of the distribution area (n=3 animals×4 microscopic visual field=12).

[2] = test system: existing vasculature of general organs (brain, liver, kidney); test: 3-2 General organs, vasculature morphological change and dextran distribution; format: in vivo, nude mice; conditions: LY 1 mg/kg i.p.
Source text: Brain, liver and kidney were extracted from animals used in 3-1 to carry out histological search.

phosphorylated Smad2 [3] = test: 3-3 Phosphorylated Smad2 staining in BxPC3 cancer tissue one hour after LY364947; format: in vivo, nude mice; conditions: 1 h
Protocol: As TGF-β inhibitor, 1 mg/kg, 25 mg/kg or a control of LY was administered once intraperitoneally. The animals were sacrificed one hour after administration to extract the tumor, and immuno-histological staining of the tumor was carried out using an antibody against phosphorylated Smad2 as well as an antibody against PECAM1.

phosphorylated Smad2 [4] = test: 3-4 Phosphorylated Smad2 in nucleated blood cells by FACS one hour after LY364947; format: in vivo, nude mice; conditions: LY 1 mg/kg i.p., 1 h, control group 35.7%
Protocol: Cancer-transplanted nude mice were administered once intraperitoneally with 1 mg/kg of LY as TGF-β inhibitor or a control. One hour after administration, whole blood collection was carried out, hemolysis treatment, formalin fixation, cell membrane perforation by methanol were carried out, then, staining was carried out with an antibody against phosphorylated Smad2, thereafter, the ratio of phosphorylated Smad2-positive cells was measured by FACS. In so doing, with those [samples] where only the secondary antibody was reacted serving as controls for the immuno-staining method, the gate was set so that rate of positive cell was approximately 1% in this group (P1 in FIG. 5-2), and the ratio of phosphorylated Smad2-positive cells was measured for the TGF-β inhibitor-administered group and the non-treated group.

[5] = test system: Smad-4-deficient pancreatic adenocarcinoma cells (BxPC3); test: 3-6 BxPC3 xenograft growth curve, single administration of ADR, Doxil, Micelle-ADR with or without LY; format: in vivo, nude mice; conditions: day 14, single dose 8 mg/kg anticancer agent i.v., LY 1 mg/kg i.p. once, start = 1, control 4.77±0.50
Protocol: For each of 8 mg/kg of Doxil, 8 mg/kg of Micelle-ADR or 8 mg/kg of ordinary ADR as anticancer agent, or no anticancer agent, which was administrated via the tail vein, administration was carried out only once. […] Inhib in the figures) as TGF-β inhibitor or a control.

[6] = test system: Smad-4-deficient pancreatic adenocarcinoma cells (BxPC3); test: 3-7 BxPC3 xenograft growth curve, three administrations of ADR or Micelle-ADR with or without LY; format: in vivo, nude mice; conditions: day 16, Micelle-ADR 16 mg/kg or ADR 8 mg/kg i.v. three times spaced by four days, LY 1 mg/kg i.p. three times a week, start = 1, control 4.69±0.46
Protocol: For each of, 16 mg/kg of Micelle-ADR or 8 mg/kg of ADR as anticancer agent, or no anticancer agent, administration via the tail vein was carried out three times spaced by four days. […] For these animals, the approximated values of tumor volume were observed continuously for 16 days.

[7] = test system: TGFbRII-mutant pancreatic adenocarcinoma cell line MIA PaCa-2; test: 3-8 MIA PaCa-2 xenograft tumor growth curve; format: in vivo, nude mice; conditions: regimen as 3-7, start = 1, control 2.91±0.30
Protocol: For each of, 16 mg/kg of Micelle-ADR or 8 mg/kg of ADR as anticancer agent, or no anticancer agent, administration via the tail vein was carried out three times spaced by four days. As TGF-β inhibitor, 1 mg/kg of LY364947 (hereinafter, referred to as LY) or control was administered three times a week intraperitoneally. The experiment was carried out for the six conditions combining the above 3×2 types [of administration modes], with n=5 each. For these animals, the approximated values of tumor volume were observed continuously for 16 days. For the tumor volumes, those that have been approximated by long side of tumor mass×(short side)^2 were compared, taking 1 as the value at the administration start time for each tumor mass.

[8] = 3-14 Drug in vivo dynamics in general organs, Micelle-ADR or ADR with LY; design: species or system nude mice
Protocol: Each of 8 mg/kg of Micelle-ADR or 8 mg/kg of ADR as anticancer agent was administered to tumor-bearing nude mice via the tail vein. As TGF-β inhibitor, 1 mg/kg of LY or a control was administered intraperitoneally. Experiment was carried out for the four conditions combining the above 2×2 types [of administration modes], with n=3. […] In addition, the surrounding of the tail vein where the agents were administered was observation.

[9] = test system: Smad-4-deficient pancreatic adenocarcinoma cells (BxPC3); test: Combined effect of Gemcitabine and LY364947 on tumor volume, pancreatic adenocarcinoma xenograft model; format: in vivo, nude mice; conditions: day 21, Gem 125 mg/kg i.p. twice a week, LY 1 mg/kg i.p. three times a week, value at start = 1, control 5.56±1.59
Protocol: Combining Gemcitabine (hereinafter, abbreviated as Gem), administrated twice a week intraperitoneally at 125 mg/kg, and LY364947 (hereinafter, referred to as LY), administrated three times a week intraperitoneally at 1 mg/kg, three groups were established as follows: a control group, a Gem alone administration group and a LY+Gem combined application group, with n=2 each. […] The tumor volumes were approximated by long side of tumor mass×(short side)^2 and compared, taking 1 as the value at the administration start time for each tumor mass.

[10] = test system: mouse breast cancer cell line 4T1; conditions: systemic administration by intraperitoneal injection; cited from earlier work
hepatic fibrosis = conditions: intraperitoneal injection, cited from earlier work

## c1ccc(-c2[nH]ncc2-c2ccnc3ccccc23)nc1 [LY364947]
neovasculature; day 7, p=0.0009
  total area of the vascular endothelium: increased significantly
neovasculature; day 7, vs non-administered group, p=0.006
  endothelial cell coverage of the pericytes: decreased significantly
neovasculature; dextran MW 2,000,000 i.v. 6 h before sacrifice, p<0.0001
  dextran distribution area: increased approximately two-fold
[1]; BxPC3 xenograft, LY 1 mg/kg i.p. once, 24 h, control 1.00±0.03, p=0.02
  endothelial cell marker-positive area: 1.13±0.06
[1]; BxPC3 xenograft, LY 1 mg/kg i.p. once, 24 h, control 36.0±2.2%, p=0.00002
  extent of coverage of endothelial cells by the pericyte: 23.3±1.9%
[1]; BxPC3 xenograft, LY 1 mg/kg i.p. once, dextran MW 2,000,000 6 h before sacrifice, control 1.00±0.13, p=0.002
  macromolecular dextran distribution area: 2.24±0.36
[1]; LY 1 mg/kg, administered vs non-administered, P=0.336
  fibrosis of tumor tissue (azan staining): no significant difference
[2]
  dextran distribution in general organs: no clear difference
  morphology of existing vasculature of general organs: No clear change in morphology
Phosphorylated Smad2 [3]; LY 1 mg/kg i.p.
  Smad2 phosphorylation in intratumoral vascular walls, magnified visual field: cancellation of Smad2 phosphorylation was observed
  phosphorylated Smad2 staining of tumor vs control, weak magnification visual field: no remarkable difference
Phosphorylated Smad2 [3]; LY 25 mg/kg i.p.
  Smad2 phosphorylation in cancer cells: cancellation of Smad2 phosphorylation was observed in almost the entirety of the cancer cells
Phosphorylated Smad2 [4]
  cells positive for phosphorylated Smad2: 16.3%
[5]
  relative tumor volume on the last day: 4.83±0.54
[6]
  relative tumor volume on the last day: 4.34±0.37
[7]
  relative tumor volume on the last day (16th day): 2.75±0.08
[8]; LY 1 mg/kg i.p., four hours
  organ distribution (frozen samples), LY administration vs non-administration: no clear difference
[8]; Micelle-ADR 8 mg/kg i.v., LY 1 mg/kg i.p., four hours, all organs measured
  total amount of ADR in organs by the HPLC method, LY administration vs non-administration: no significant difference
[8]; combined administration of LY 1 mg/kg i.p., surrounding of the tail vein
  anticancer agent-related phlebitis: no deterioration

## COc1cccc2c1C(=O)c1c(O)c3c(c(O)c1C2=O)C[C@@](O)(C(=O)CO)C[C@@H]3O[C@H]1C[C@H](N)[C@H](O)[C@H](C)O1 [ADR, adriamycin]
[5]
  relative tumor volume on the last day: 4.70±0.32
[6]
  relative tumor volume on the last day: 3.49±0.20
[7]
  relative tumor volume on the last day (16th day): 0.87±0.19

## Nc1ccn([C@@H]2O[C@H](CO)[C@@H](O)C2(F)F)c(=O)n1 [Gemcitabine]
[9]
  relative tumor volume on the last day: 4.76±0.46

B1: solubilized TGF-β Type II receptor: solubilized TGF-β Type II receptor (TGF-β ligand-adsorbed) protein, literature studies (protein, UniProt P37173 23-166, looked up)
extracellular domain: TIPPHVQKSVNNDMIVTDNNGAVKFPQLCKFCDVRFSTCDNQKSCMSNCSITSICEKPQEVCVAVWRKNDENITLETVCHDPKLPYHDFILEDAASPKCIMKEKKKPGETFFMCSCSSDECNDNIIFSEEYNTSNPDLLLVIFQ
modifications: extracellular domain
notes: solubilized TGF-β Type II receptor (TGF-β ligand-adsorbed) protein, literature studies
[10]
  lung metastasis: decreased
Hepatic fibrosis; 2.5 mg/kg
  hepatic fibrosis: not suppressed
Hepatic fibrosis; 5 mg/kg
  hepatic fibrosis: suppressed

Source: patent US20120258042A1, “COMBINED USE OF TGF-B SIGNALING INHIBITOR AND ANTITUMOR AGENT” (priority 2006, published 2012)
